Key:
[1] = target: T1, recombinant human 17β-HSD1 (Homo sapiens, UniProt P14061); assay: Inhibition of recombinant human 17β-HSD1 (estrone to estradiol conversion, HPLC/radioactivity); type: biochemical; conditions: compound 100 nM; 30 nM estrone, 1 mM NADPH, 30 min RT
T1 construct: made in house; host or cells: Sd9 (Sf9) insect cells, baculovirus (Bac to Bac Expression System)
T1 sequence (P14061 1-328): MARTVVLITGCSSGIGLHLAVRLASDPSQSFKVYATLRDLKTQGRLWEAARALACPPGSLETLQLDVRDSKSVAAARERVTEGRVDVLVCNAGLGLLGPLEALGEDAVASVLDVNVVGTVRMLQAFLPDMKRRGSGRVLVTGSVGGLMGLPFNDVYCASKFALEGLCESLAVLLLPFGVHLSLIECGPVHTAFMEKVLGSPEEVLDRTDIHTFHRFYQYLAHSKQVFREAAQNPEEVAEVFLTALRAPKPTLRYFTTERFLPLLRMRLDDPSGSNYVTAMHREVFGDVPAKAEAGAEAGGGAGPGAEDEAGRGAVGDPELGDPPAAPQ
Outline: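 Microsomal human 17β-HSD1 from Sf9 baculovirus (1 μg/ml) was incubated 30 min at RT in 20 mM KH2PO4 pH 7.4 with 30 nM ^3H-estrone, 1 mM NADPH and inhibitor at 1 μM or 0.1 μM (1% DMSO). Estrone and estradiol were separated by HPLC with radioactivity detection. % inhibition = 100 − % conversion relative to uninhibited control.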

[2] = target: T2, recombinant human 17β-HSD2 (Homo sapiens, UniProt P37059); assay: Inhibition of recombinant human 17β-HSD2 (estradiol to estrone conversion, HPLC/radioactivity); type: biochemical; conditions: compound 1 μM; 50 nM estradiol, 1 mM NADH, 30 min RT
T2 construct: made in house; host or cells: Sd9 (Sf9) insect cells, baculovirus (Bac to Bac Expression System)
T2 sequence (P37059 1-387): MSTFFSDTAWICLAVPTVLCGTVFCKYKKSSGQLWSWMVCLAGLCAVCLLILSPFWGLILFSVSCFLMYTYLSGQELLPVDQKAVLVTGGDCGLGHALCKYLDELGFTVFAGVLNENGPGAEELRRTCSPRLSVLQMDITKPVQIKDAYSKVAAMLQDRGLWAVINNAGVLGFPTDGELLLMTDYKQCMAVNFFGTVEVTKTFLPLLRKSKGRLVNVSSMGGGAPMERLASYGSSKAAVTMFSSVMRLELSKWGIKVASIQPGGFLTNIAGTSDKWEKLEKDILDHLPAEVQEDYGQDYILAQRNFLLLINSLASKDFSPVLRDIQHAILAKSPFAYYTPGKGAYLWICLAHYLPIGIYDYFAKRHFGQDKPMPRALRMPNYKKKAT
Outline: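 Membrane extract of Sf9 cells expressing recombinant human 17β-HSD2 (4 μg/ml), in 20 mM KH2PO4 pH 8.5 with 50 nM ^3H-spiked estradiol and 1 mM NADH, 30 min at RT, 1% DMSO. Compound at 1 μM or 0.1 μM; estrone formation by HPLC radioactivity, % inhibition relative to uninhibited conversion.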

[3] = Metabolic stability assay, human hepatocyte incubations; type: in vitro ADME; conditions: compound 1 μM, human hepatocytes, 0-60 min at 37° C.; read-out: Human hepatocytes MetStab T½ min
Method: Compound stock solutions of the invention were prepared in […]. Final concentration of DMSO was adjusted to 1% in all samples. The in vitro metabolic stability of the compounds of the invention was determined for exemplified compounds using human hepatocyte incubations; study compounds at concentration of 1 μM were incubated 0, 10, 20, 40 and 60 min at 37° C. Samples were collected at all time points and compounds were detected by LC-MS/MS analysis. The percent compound remaining is calculated by comparing the peak area of the parent compound at each time point to time zero. In vitro metabolic stability was determined as half life (T1/2), which was determined by regression analysis of the percent parent disappearance vs. time curve.

C[C@]12CCC3c4cccc(F)c4CCC3C1[C@H](CCC(=O)NC1CCOCC1)c1c[nH]nc12 (stereo partly drawn) [Compound 45, 3-((8aS,12S)-3-fluoro-8a-methyl-1,2,6b,7,8,8a,10,12,12a,12b-decahydronaphtho[2′,1′:4,5]indeno[1,2-c]pyrazol-12-yl)-N-(tetrahydro-2H-pyran-4-yl)propanamide]
inhibition at 0.1 µM [1]: 90%
inhibition at 1 µM [2]: 3%
half-life at 1 μM [3]: 35 min
